Laboratory results reported in patent US20130158075A1, “HETEROCYCLIC COMPOUNDS AS DGAT1 INHIBITORS” (PIRAMAL ENTERPRISES LIMITED, priority 2010, published 2013).

Biological target: T1, hDGAT1 (Homo sapiens, UniProt O75907)
T1 construct: made in house; host or cells: Sf9 insect cells (baculovirus); microsomal fraction
T1 sequence (O75907 1-488): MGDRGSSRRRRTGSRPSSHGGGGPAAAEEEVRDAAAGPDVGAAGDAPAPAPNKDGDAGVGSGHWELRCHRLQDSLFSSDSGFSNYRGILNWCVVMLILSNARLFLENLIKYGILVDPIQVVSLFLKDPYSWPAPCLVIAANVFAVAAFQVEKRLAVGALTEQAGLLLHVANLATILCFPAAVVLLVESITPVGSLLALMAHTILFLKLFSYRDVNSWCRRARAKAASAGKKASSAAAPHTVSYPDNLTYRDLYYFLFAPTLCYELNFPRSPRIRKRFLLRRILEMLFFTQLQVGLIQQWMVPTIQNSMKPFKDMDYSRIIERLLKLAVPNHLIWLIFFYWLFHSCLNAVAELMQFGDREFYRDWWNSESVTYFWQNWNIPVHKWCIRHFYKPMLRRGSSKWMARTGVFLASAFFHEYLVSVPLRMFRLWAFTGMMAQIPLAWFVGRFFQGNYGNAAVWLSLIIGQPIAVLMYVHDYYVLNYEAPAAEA
Experiment: In-vitro DGAT1 assay with hDGAT1 microsomes from Sf9 cells (14C oleoyl CoA, scintillation counting)
Type: biochemical
Details: at 1 μM
Protocol: Sf9 cells were grown in T25 flasks containing Graces's Insect media with 10% FBS with antibiotic (100 units/mL penicillin, 100 μg/mL streptomycin sulphate, 0.25 μg/mL Amptotericin B as Fungizone) grown in a 27° C. incubator.
hDGAT10RF expression clone (RZPDo839C09146 in pDEST vector) was obtained from RZPD, German Science Center for Genomes research, Germany. hDGAT1 bacmid DNA was obtained by transformation of the hDGAT1 expression clone into DH10Bac E. coli competent cells. Approximately 1 μg of hDGAT1 bacmid DNA was infected into Sf9 cells with Cellfectin (Invitrogen) reagent. Following infection, Sf9 cells were incubated at 27° C. for 30 min. Five hours after infection, the media was replaced with growth media containing antibiotics (100 units/mL penicillin, 100 μg/mL streptomycin sulphate, 0.25 μg/mL Amptotericin B as Fungizone) and incubated at 27° C. for 72 h. The supernatant containing the virus was centrifuged at 1500×g for 5 min, passed through 0.22 μm filter, and subsequently stored at 4° C. The virus was further amplified three more times by re-infection of Sf9 cells and the viral titer was determined by plaque assay.
Sf9 cells were seeded in spinner flasks on day 0 at a cell density of 1×10^6 and infected on day 1 with hDGAT1 baculovirus at a multiplicity of infection (MOI) of 5 and a cell density of 2×10^6. On day 3 (or 66-72 h), cells were harvested and centrifuged at 2500×g for 10 min. Pellet was resuspended in lysis buffer (100 mM sucrose, 50 mM KCl, 40 mM KH2PO4, 30 mM EDTA, pH 7.2) and passed through 21-gauge needle approximately 10 times. The mixture was centrifuged at 12,000 rpm in a Sigma 12158-H rotor at 4° C. for 30 min. The supernatant was subjected to centrifugation at 35,000 rpm in a Beckman Ti-45 rotor at 4° C. for 1 h. The resultant pellet containing the microsomes wasere resuspended overnight in 1 mL of lysis buffer and total protein concentration was estimated using Bradford Reagent. Microsomes were aliquoted and stored at −80° C.
Frozen aliquots of hDGAT1 containing microsomes were thawed (5-10 mg/mL total protein) on ice and diluted to a working stock of 1 mg/mL with DGAT Assay Buffer (DAB). The DGAT reaction assay was performed by following the procedure described in U.S. Pat. No. 6,607,893 with some modifications that are described below.
1 mL stock solution of DGAT1 substrate mixture contains 5.6 μL of ^14C oleoyl CoA (16.8 nCi) and […] of 1,2-dioleoyl-sn-glycerol (1228.5 μM) 1,2-dioleoyl-sn-glycerol stock (19.5 mM) was prepared by dissolving 25 mg of 1,2-dioleoyl-sn-glycerol (Sigma, US) in 2060 μL of acetone.
The assay was performed in duplicates in a reaction volume of 100 μL.
The reaction was started by the addition of 2.5 μL of 1 mg/mL of microsomes (iv) to the mixture of (i), (ii) and (iii), and incubated at 37° C. for 10 min. The reaction was stopped by the addition of 300 μL of Alkaline Ethanol Stop Solution Mix [AESSM; 12.5% of 100% non-denatured ethanol, 10% deionized water, 2.5% 1N NaOH, 75% stop solution (78.4% isopropanol, 19.6% n-heptane, 2% deionized water)] followed by addition of 600 μL of n-heptane. The mixture was vortexed and the triglycerides formed were extracted into the organic heptane phase. 250 μL of the heptane phase was added into 4 mL scintillation cocktail (66.72% toluene, 33.3% TritonX-100, 0.5% PPO, 0.02% POPOP) and counted on a liquid scintillation counter for 1 min. Data was collected and plotted as a function of concentration in nM versus percentage inhibition of hDGAT1 by the compounds of present invention.

| Percentage inhibition of hDGAT1 | Molecule |
| --- | --- |
| ++ (>50 % Inhibition) | 3-(5-(4-(3-(2-Chlorophenyl)ureido)phenyl)thiazol-2-yl)-2,2-diethylpropanoic acid [Example 30] |
| + (20-50% Inhibition) | 4-(3-(4-(3-(2,4-Difluorophenyl)ureido)phenyl)-1,2,4-oxadiazol-5-yl)butanoic acid [Example 332] |
| + (20-50% Inhibition) | 4-(5-(4-(3-(2-Fluorophenyl)-2-methylguanidino)phenyl)thiazol-2-yl)-2,2-dimethyl butanoic acid [Example 271] |

More lines, now with the values behind:

| Molecule | Percentage inhibition of hDGAT1 |
| --- | --- |
| 3-(5-(4-(4-Tert-butyl benzamido)phenyl)oxazol-2-yl)-2,2-dimethylpropanoic acid [Example 126] | + (20-50% Inhibition) |
| CC(C)(Cc1ncc(-c2ccc(NC(=O)c3ccc(-c4ccccc4)cc3)cc2)s1)C(=O)O [Example 44, 3-(5-(4-Biphenyl-4-ylcarboxamidophenyl)thiazol-2-yl)-2,2-dimethylpropanoic acid] | + (20-50% Inhibition) |
| O=C(O)CCCc1ncc(-c2ccc(NC(=O)c3ccc(-c4ccccc4)cc3)cc2)s1 [Example 61, 4-(5-(4-Biphenyl-4-ylcarboxamidophenyl)thiazol-2-yl)butanoic acid] | ++ (>50 % Inhibition) |

Same assay, conditions: read-out: Percentage inhibition of hDGAT1

| inhibition at 1 µM [%] | Molecule |
| --- | --- |
| > 50 | O=C(O)CCc1ncc(-c2ccc(NC(=O)Nc3ccccc3Cl)cc2)s1 [Example 9, 3-(5-(4-(3-(2-Chlorophenyl)ureido)phenyl)thiazol-2-yl)propanoic acid] |
| > 50 | O=C(O)CCc1ncc(-c2ccc(NC(=O)NC3CCCCC3)cc2)s1 [Example 11, 3-(5-(4-(3-Cyclohexylureido)phenyl)thiazol-2-yl)propanoic acid] |
| > 50 | CC(C)(C)c1ccc(C(=O)Nc2ccc(-c3cnc(CCC(=O)O)s3)cc2)cc1 [Example 15, 3-(5-(4-(4-Tert-butylbenzamido)phenyl)thiazol-2-yl)propanoic acid] |
| > 50 | O=C(O)CCc1ncc(-c2ccc(NC(=O)c3ccc4ccccc4c3)cc2)s1 [Example 21, 3-(5-(4-(2-Naphthamido)phenyl)thiazol-2-yl)propanoic acid] |
| 20 to 50 | COc1ccc(S(=O)(=O)Nc2ccc(-c3cnc(CCC(=O)O)s3)cc2)c(OC)c1 [Example 25, 3-(5-(4-(2,4-Dimethoxyphenylsulfonamido)phenyl)thiazol-2-yl)propanoic acid] |
| > 50 | CC(C)(Cc1ncc(-c2ccc(NC(=O)Nc3ccc(C(F)(F)F)cc3)cc2)s1)C(=O)O [Example 32, 2,2-Dimethyl-3-(5-(4-(3-(4-(trifluoromethyl)phenyl)ureido)phenyl)thiazol-2-yl)propanoic acid] |
| 20 to 50 | CC(C)(Cc1ncc(-c2ccc(NC(=O)NC3CCCCC3)cc2)s1)C(=O)O [Example 38, 3-(5-(4-(3-Cyclohexylureido)phenyl)thiazol-2-yl)-2,2-dimethylpropanoic acid] |
| > 50 | CC(C)(Cc1ncc(-c2ccc(NC(=O)Nc3ccc(Cl)cc3Oc3ccccc3)cc2)s1)C(=O)O [Example 40, 3-(5-(4-(3-(4-Chloro-2-phenoxyphenyl)ureido)phenyl)thiazol-2-yl)-2,2-dimethylpropanoic acid] |
| > 50 | O=C(O)CCCc1ncc(-c2ccc(NC(=O)Nc3cccc(C(F)(F)F)c3)cc2)s1 [Example 49, 4-(5-(4-(3-(3-(Trifluoromethyl)phenyl)ureido)phenyl)thiazol-2-yl)butanoic acid] |
| > 50 | O=C(O)CCCc1ncc(-c2ccc(NC(=O)Nc3ccccc3Cl)cc2)s1 [Example 51, 4-(5-(4-(3-(2-Chlorophenyl)ureido)phenyl)thiazol-2-yl)butanoic acid] |
| > 50 | O=C(O)CCCc1ncc(-c2ccc(NC(=O)Nc3ccc(Cl)cc3Oc3ccccc3)cc2)s1 [Example 55, 4-(5-(4-(3-(4-Chloro-2-phenoxyphenyl)ureido)phenyl)thiazol-2-yl)butanoic acid] |

The remaining lines, values behind:

| Molecule | inhibition at 1 µM [%] |
| --- | --- |
| O=C(O)CCc1ncc(-c2ccc(NC(=O)Nc3cccc(C(F)(F)F)c3)cc2)s1 [Example 7, 3-(5-(4-(3-(3-(Trifluoromethyl)phenyl)ureido)phenyl)thiazol-2-yl)propanoic acid] | > 50 |
| O=C(O)CCc1ncc(-c2ccc(NC(=O)Nc3ccc(Cl)cc3Oc3ccccc3)cc2)s1 [Example 13, 3-(5-(4-(3-(4-Chloro-2-phenoxyphenyl)ureido)phenyl)thiazol-2-yl)propanoic acid] | > 50 |
| CCCCCc1ccc(C(=O)Nc2ccc(-c3cnc(CCC(=O)O)s3)cc2)cc1 [Example 17, 3-(5-(4-(4-Pentylbenzamido)phenyl)thiazol-2-yl)propanoic acid] | > 50 |
| CCOc1cc(COC)cc(C(=O)Nc2ccc(-c3cnc(CCC(=O)O)s3)cc2)c1 [Example 19, 3-(5-(4-(3-Ethoxy-5-(methoxymethyl)benzamido)phenyl)thiazol-2-yl)propanoic acid] | > 50 |
| CCCCOc1ccc(C(=O)Nc2ccc(-c3cnc(CCC(=O)O)s3)cc2)cc1 [Example 23, 3-(5-(4-(4-Butoxybenzamido)phenyl)thiazol-2-yl)propanoic acid] | > 50 |
| CC(C)(Cc1ncc(-c2ccc(NC(=O)Nc3ccc(F)cc3)cc2)s1)C(=O)O [Example 34, 3-(5-(4-(3-(4-Fluorophenyl)ureido)phenyl)thiazol-2-yl)-2,2-dimethylpropanoic acid] | 20 to 50 |
| COc1ccc(NC(=O)Nc2ccc(-c3cnc(CC(C)(C)C(=O)O)s3)cc2)cc1 [Example 36, 3-(5-(4-(3-(4-Methoxyphenyl)ureido)phenyl)thiazol-2-yl)-2,2-dimethyl propanoic acid] | > 50 |
| CC(C)(Cc1ncc(-c2ccc(NC(=O)c3ccc(C(C)(C)C)cc3)cc2)s1)C(=O)O [Example 42, 3-(5-(4-(4-tert-Butylbenzamido)phenyl)thiazol-2-yl)-2,2-dimethylpropanoic acid] | 20 to 50 |
| Cc1ccc(NC(=O)Nc2ccc(-c3cnc(CCCC(=O)O)s3)cc2)cc1C [Example 53, 4-(5-(4-(3-(3,4-Dimethylphenyl)ureido)phenyl)thiazol-2-yl)butanoic acid] | > 50 |
| CC(C)(C)c1ccc(C(=O)Nc2ccc(-c3cnc(CCCC(=O)O)s3)cc2)cc1 [Example 57, 4-(5-(4-(4-Tert-butylbenzamido)phenyl)thiazol-2-yl)butanoic acid] | 20 to 50 |
| CCCCCc1ccc(C(=O)Nc2ccc(-c3cnc(CCCC(=O)O)s3)cc2)cc1 [Example 59, 4-(5-(4-(4-Pentylbenzamido)phenyl)thiazol-2-yl)butanoic acid] | > 50 |
| COc1ccc(S(=O)(=O)Nc2ccc(-c3cnc(CCCC(=O)O)s3)cc2)c(OC)c1 [Example 63, 4-(5-(4-(2,4-Dimethoxyphenylsulfonamido)phenyl)thiazol-2-yl)butanoic acid] | 20 to 50 |
